Experimental data as given in US7166570B2, “Medical implants and fibrosis-inducing agents” (Angiotech International AG, priority 2003, dated 2007).

Tests used:
Test in all cases: MIC determination by microtitre broth dilution
Type in all cases: cell-based
E. coli UB1005 C498 wt = details: Gram−, Mueller Hinton broth, 37° C., 24 h, aerobic, N = No activity
Experimental: (§1) MIC assays were conducted essentially as described by Amsterdam, D. 1996, “Susceptibility testing of antimicrobials in liquid media,” p. 52–111. In Loman, V., ed. Antibiotics in laboratory medicine, 4th ed. Williams and Wilkins, Baltimore, Md.

[1] = tested on: K. pneumoniae ATCC13883 C238 wt; details: Gram−, Mueller Hinton broth, 37° C., 24 h, aerobic, N = No activity
Experimental: as §1

[2] = tested on: P. aeruginosa PAE/K799 H187 Wt; details: Gram−, Mueller Hinton broth, 37° C., 24 h, aerobic, N = No activity
Experimental: as §1

[3] = tested on: S. aureus ATCC25923 C622 wt; details: Gram+, Mueller Hinton broth, 37° C., 24 h, aerobic, N = No activity
Experimental: as §1

S. epidermidis C621 wt = details: Gram+, Mueller Hinton broth, 37° C., 24 h, aerobic, N = No activity
Experimental: as §1

S. pyogenes C721 wt = details: Gram+, Todd Hewitt broth, 37° C., 24 h, aerobic, N = No activity
Experimental: as §1

Row | SMILES | Minimum inhibitory concentration (MIC) (E. coli UB1005 C498 wt) | Minimum inhibitory concentration (MIC) [1] | Minimum inhibitory concentration (MIC) [2] | Minimum inhibitory concentration (MIC) [3] | Minimum inhibitory concentration (MIC) (S. epidermidis C621 wt) | Minimum inhibitory concentration (MIC) (S. pyogenes C721 wt)
1 | COc1cc([C@@H]2c3cc4c(cc3[C@@H](O[C@@H]3O[C@@H]5CO[C@@H](C)O[C@H]5[C@H](O)[C@H]3O)[C@H]3COC(=O)[C@H]23)OCO4)cc(OC)c1O [etoposide] | N | 10^−5 Molar | N | 10^−5 Molar | 10^−6 Molar | 10^−5 Molar
2 | CC[C@@]1(O)C(=O)OCc2c1cc1n(c2=O)Cc2cc3ccccc3nc2-1 [Camptothecin] | N | N | N | N | 10^−4 Molar | N
3 | Sc1ncnc2nc[nH]c12 [6-mercaptopurine] | N | N | N | N | N | N
4 | Nc1ncnc2c1ccn2[C@@H]1O[C@H](CO)[C@@H](O)[C@H]1O [tubercidin] | N | N | N | N | N | N
5 | Nc1ccn([C@@H]2O[C@H](CO)[C@@H](O)[C@@H]2O)c(=O)n1 [Cytarabine] | N | N | N | N | N | N
6 | NC(=O)NO [hydroxyurea] | N | N | 10^−4 Molar | N | N | 10^−4 Molar
7 | O=C1c2c(O)ccc(O)c2C(=O)c2c(NCCNCCO)ccc(NCCNCCO)c21 [mitoxantrone] | 10^−5 Molar | 10^−6 Molar | 10^−5 Molar | 10^−5 Molar | 10^−5 Molar | 10^−6 Molar
8 | O=c1[nH]cc(F)c(=O)[nH]1 [5-Fluorouracil] | 10^−6 Molar | 10^−6 Molar | 10^−5 Molar | 10^−7 Molar | 10^−7 Molar | 10^−4 Molar
9 | COc1cccc2c1C(=O)c1c(O)c3c(c(O)c1C2=O)C[C@@](O)(C(=O)CO)C[C@@H]3O[C@H]1C[C@H](N)[C@H](O)[C@H](C)O1 [Doxorubicin] | 10^−4 Molar | 10^−6 Molar | 10^−5 Molar | 10^−5 Molar | 10^−6 Molar | 10^−7 Molar
10 | Sc1ncc2[nH]cnc2n1 [2-mercaptopurine] | N | N | N | N | N | N
11 | CN(Cc1cnc2nc(N)nc(N)c2n1)c1ccc(C(=O)N[C@@H](CCC(=O)O)C(=O)O)cc1 [Methotrexate] | N | 10^−6 Molar | N | 10^−5 Molar | N | 10^−6 Molar
